Experimental data: patent US8242145B2, “Cyclic diaryl ether compounds as antagonists of prostaglandin D2 receptors” (Panmira Pharmaceuticals, LLC, priority 2008, dated 2012)

Key:
human DP1 receptor = molecular target: T1, human DP1 receptor (Homo sapiens, UniProt Q13258); assay: DP1 radioligand binding assay using [3H]BWA868C; conditions: hDP1 binding
T1 construct: tissue Biological Specialty Corporation; host or cells: human platelets, membranes
T1 sequence (Q13258 1-359): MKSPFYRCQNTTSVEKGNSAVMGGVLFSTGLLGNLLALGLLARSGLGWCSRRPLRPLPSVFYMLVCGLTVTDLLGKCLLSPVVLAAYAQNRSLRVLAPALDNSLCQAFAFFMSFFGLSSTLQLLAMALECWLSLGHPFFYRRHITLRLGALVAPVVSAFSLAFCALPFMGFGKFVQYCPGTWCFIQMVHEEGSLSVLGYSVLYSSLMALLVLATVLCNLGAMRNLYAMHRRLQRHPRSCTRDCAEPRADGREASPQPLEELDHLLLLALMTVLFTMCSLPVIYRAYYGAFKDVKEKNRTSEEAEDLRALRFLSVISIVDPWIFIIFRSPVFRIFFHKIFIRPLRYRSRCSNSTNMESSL
Procedure: The ability of a compound to bind to the human DP1 receptor was evaluated via a radioligand membrane binding assay using the DP1 selective synthetic ligand [^3H]BW A868C. Packed human platelets (Biological Specialty Corporation), were resuspended in 6 volumes of Hepes/HBSS buffer (10 mM Hepes, 1 mM DTT in Hanks Balanced Salt Solution (HBSS)), lysed and centrifuged at 75,000×g to pellet the membranes. Membranes were resuspended in Hepes/HBSS buffer to approximately 12 mg protein/ml. Membranes (20 μg protein/well) are incubated in 96-well plates with 2 nM [^3H]BWA868C and test compound in Assay Buffer (50 mM Hepes, 10 mM MnCl2, 1 mM EDTA, plus or minus 0.2% human serum albumin, pH 7.4) for 60 minutes at room temperature. The reactions are terminated by rapid filtration through Whatman GF/C glass fibre filter plates. The filter plates were pre-soaked in 0.33% polethylenimine for 30 minutes at room temperature then washed in Wash Buffer (50 mM Hepes, 0.5 M NaCl pH 7.4) prior to harvesting. After harvesting, the filter plates are washed 3 times with 1 ml cold Wash Buffer then dried. Scintillant is then added to the plates and the radioactivity retained on the filters is determined on a Packard TopCount (Perkin Elmer). Specific binding is determined as total radioactive binding minus non-specific binding in the presence of 10 μM BW A868C. IC50s were determined using GraphPad prism analysis of drug titration curves.

human DP2 receptor = molecular target: T2, human DP2 receptor (Homo sapiens, UniProt Q9Y5Y4); assay: DP2/CRTH2 radioligand binding assay using [3H]PGD2; conditions: hDP2 (CRTH2) binding assay
T2 construct: expressed in transfected cells
T2 sequence (Q9Y5Y4 1-395): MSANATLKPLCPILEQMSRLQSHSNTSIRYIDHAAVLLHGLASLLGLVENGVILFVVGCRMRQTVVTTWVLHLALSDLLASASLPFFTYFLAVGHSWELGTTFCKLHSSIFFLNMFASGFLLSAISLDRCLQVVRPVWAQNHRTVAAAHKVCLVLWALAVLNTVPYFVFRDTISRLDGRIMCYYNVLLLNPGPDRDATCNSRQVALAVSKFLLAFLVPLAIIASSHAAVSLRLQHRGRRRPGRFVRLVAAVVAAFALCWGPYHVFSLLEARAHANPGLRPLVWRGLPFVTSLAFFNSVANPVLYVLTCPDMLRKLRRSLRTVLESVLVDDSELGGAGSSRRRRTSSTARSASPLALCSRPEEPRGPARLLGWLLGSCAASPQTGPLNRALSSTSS
Procedure: The ability of a compound to bind to the human DP2 receptor is assessed via a radioligand binding assay using [^3H]PGD2. HEK293 cells stably expressing recombinant human DP2 are resuspended in 10 mM Hepes, 7.4 containing 1 mM DTT, lysed and centrifuged at 75,000×g to pellet the membranes. The membranes are resuspended in 10 mM Hepes, 7.4 containing 1 mM DTT and 10% glycerol to approximately 5 mg protein/ml. Membranes (2-10 μg protein/well) are incubated in 96-well plates with 1 nM [^3H]PGD2 and test compound in Assay Buffer (50 mM Hepes, 10 mM MnCl2, 1 mM EDTA, plus or minus 0.2% human serum albumin, pH 7.4) for 60 minutes at room temperature. The reactions are terminated by rapid filtration through Whatman GF/C glass fibre filter plates. The filter plates were pre-soaked in 0.33% polythylenimine for 30 minutes at room temperature then washed in Wash Buffer (50 mM Hepes, 0.5 M NaCl pH 7.4) prior to harvesting. After harvesting, the filter plates are washed 3 times with 1 ml cold Wash Buffer then dried. Scintillant is then added to the plates and the radioactivity retained on the filters is determined on a Packard TopCount (Perkin Elmer). Specific binding is determined as total radioactive binding minus non-specific binding in the presence of 10 μM PGD2. IC50s were determined using GraphPad prism analysis of drug titration curves.

[1] = molecular target: T3, recombinant human CRTH2 receptor (Homo sapiens, UniProt Q9Y5Y4); assay: GTPγS binding assay; format: biochemical; conditions: +HSA; read-out: hDP2 GTPγS μM (+HSA)
T3 construct: expressed in transfected cells
T3 sequence (Q9Y5Y4 1-395): T2 sequence (Q9Y5Y4 1-395)
Procedure: The ability of a compound to inhibit binding of GTP to DP2 is assessed via a membrane GTPγS assay. CHO cells stably expressing the recombinant human CRTH2 receptor are resuspended in 10 mM Hepes, 7.4 containing 1 mM DTT, lysed and centrifuged at 75,000×g to pellet the membranes. The membranes are resuspended in 10 mM Hepes, 7.4 containing 1 mM DTT and 10% glycerol. Membranes (˜12.5 μg per well) are incubated in 96-well plates with 0.05 nM [^35S]-GTPγS, 80 nM PGD2, 5 μM GDP, and test compound in Assay Buffer (50 mM Hepes, pH 7.4, 100 mM NaCl, 5 mM MgCl2 and 0.2% human serum albumin) for 60 minutes at 30° C. The reactions are terminated by rapid filtration through Whatman GF/B glass fibre filter plates. The filter plates are washed 3 times with 1 ml cold Assay Buffer and dried. Scintillant is then added to the plates and the radioactivity retained on the filters is determined on a Packard TopCount (Perkin Elmer). Specific binding is determined as total radioactive binding minus non-specific binding in the absence of the ligand (80 nM PGD2). IC50s were determined using Graphpad prism analysis of drug titration curves.

Compound | IC50 (human DP1 receptor) | IC50 (human DP2 receptor) | IC50 [1]
COc1ccc(CC(=O)O)cc1Oc1ccc(-c2cccc(S(C)(=O)=O)c2)cc1CN1CCOC1=O [Compound 1-93, {3-[3′-Methanesulfonyl-3-(2-oxo-oxazolidin-3-ylmethyl)-biphenyl-4-yloxy]-4-methoxy-phenyl}-acetic acid] | > 1000 nM | < 300 nM | 
Cc1ncc(-c2ccc(Oc3cccc(CC(=O)O)c3)c(CN3C(=O)O[C@H](c4ccccc4)[C@@H]3C)c2)[nH]1 [Compound 1-23, {3-[4-(2-Methyl-3H-imidazol-4-yl)-2-((4S,5R)-4-methyl-2-oxo-5-phenyl-oxazolidin-3-ylmethyl)-phenoxy]-phenyl}-acetic acid] | > 1000 nM | < 300 nM | 
COc1ccc(CC(=O)O)cc1Oc1ccc(-c2ccc(S(C)(=O)=O)cc2)cc1CN1CCOC1=O [Compound 1-92, {3-[4′-Methanesulfonyl-3-(2-oxo-oxazolidin-3-ylmethyl)-biphenyl-4-yloxy]-4-methoxy-phenyl}-acetic acid] | > 1000 nM | < 300 nM | 
Cc1ccc(Oc2cccc(CC(=O)O)c2)c(CN2CCOC2=O)c1 [Compound 1-4, {3-[4-Methyl-2-(2-oxo-oxazolidin-3-ylmethyl)-phenoxy]-phenyl}-acetic acid] | > 1000 nM | 300 to 1000 nM | 
O=C(O)Cc1cccc(Oc2ccc(Br)cc2CN2CCCC2=O)c1 [Compound 3-1, {3-[4-Bromo-2-(2-oxo-pyrrolidin-1-ylmethyl)-phenoxy]-phenyl}-acetic acid] | > 1000 nM | > 1000 nM | 
COc1ccc(CC(=O)O)cc1Oc1ccc(-c2ccccc2)cc1CN1CCOC1=O [Compound 1-95, {4-Methoxy-3-[3-(2-oxo-oxazolidin-3-ylmethyl)-biphenyl-4-yloxy]-phenyl}-acetic acid] | > 1000 nM | < 300 nM | 
Cc1c[nH]c(-c2ccc(Oc3cccc(CC(=O)O)c3)c(CN3C(=O)O[C@H](c4ccccc4)[C@@H]3C)c2)n1 [Compound 1-72, {3-[4-(4-Methyl-1H-imidazol-2-yl)-2-((4S,5R)-4-methyl-2-oxo-5-phenyl-oxazolidin-3-ylmethyl)-phenoxy]-phenyl}-acetic acid] | > 1000 nM | < 300 nM | 
COc1ccc(CC(=O)O)cc1Oc1ccc(Br)cc1CN1CCNC1=O [Compound 3-3, {3-[4-Bromo-2-(2-oxo-imidazolidin-1-ylmethyl)-phenoxy]-4-methoxy-phenyl}-acetic acid] | > 1000 nM | 300 to 1000 nM | 

Now from value to compound:

IC50 (human DP1 receptor) | IC50 (human DP2 receptor) | IC50 [1] | Compound
> 1000 nM | 300 to 1000 nM | 0.3 to 1 µM | CCNC(=O)c1ccc(Oc2cccc(CC(=O)O)c2)c(CN2CCOC2=O)c1 [Compound 1-6, {3-[4-Ethylcarbamoyl-2-(2-oxo-oxazolidin-3-ylmethyl)-phenoxy]-phenyl}-acetic acid]
> 1000 nM | 300 to 1000 nM | > 1 µM | C[C@H]1[C@@H](c2ccccc2)OC(=O)N1Cc1cc(Br)ccc1Oc1ccc(C(F)(F)F)c(CC(=O)O)c1 [Compound 1-25, {5-[4-Bromo-2-((4S,5R)-4-methyl-2-oxo-5-phenyl-oxazolidin-3-ylmethyl)-phenoxy]-2-trifluoromethyl-phenyl}-acetic acid]
300 to 1000 nM | < 300 nM | > 1 µM | C[C@H]1[C@@H](c2ccccc2)OC(=O)N1Cc1cc(-c2cncn2C)ccc1Oc1cccc(CC(=O)O)c1 [Compound 1-22, {3-[4-(3-Methyl-3H-imidazol-4-yl)-2-((4S,5R)-4-methyl-2-oxo-5-phenyl-oxazolidin-3-ylmethyl)-phenoxy]-phenyl}-acetic acid]
< 300 nM | < 300 nM | 0.3 to 1 µM | Cc1noc(C)c1-c1ccc(Oc2cccc(CC(=O)O)c2)c(CN2C(=O)O[C@H](c3ccccc3)[C@@H]2C)c1 [Compound 1-76, {3-[4-(3,5-Dimethyl-isoxazol-4-yl)-2-((4S,5R)-4-methyl-2-oxo-5-phenyl-oxazolidin-3-ylmethyl)-phenoxy]-phenyl}-acetic acid]
> 1000 nM | > 1000 nM |  | O=C(O)Cc1cccc(Oc2ccccc2CN2CCOC2=O)c1 [Compound 1-1, {3-[2-(2-Oxo-oxazolidin-3-ylmethyl)-phenoxy]-phenyl}-acetic acid]
> 1000 nM | < 300 nM |  | COc1ccc(CC(=O)O)cc1Oc1ccc(NC(=O)c2cc(C(F)(F)F)cc(C(F)(F)F)c2)cc1CN1CCOC1=O [Compound 1-97, {3-[4-(3,5-Bis-trifluoromethyl-benzoylamino)-2-(2-oxo-oxazolidin-3-ylmethyl)-phenoxy]-4-methoxy-phenyl}-acetic acid]
< 300 nM | 300 to 1000 nM |  | C[C@H]1[C@@H](c2ccccc2)OC(=O)N1Cc1cc(-c2cnc(N)cn2)ccc1Oc1cccc(CC(=O)O)c1 [Compound 1-20, {3-[4-(5-Amino-pyrazin-2-yl)-2-((4S,5R)-4-methyl-2-oxo-5-phenyl-oxazolidin-3-ylmethyl)-phenoxy]-phenyl}-acetic acid]
< 300 nM | < 300 nM |  | C[C@H]1[C@@H](c2ccccc2)OC(=O)N1Cc1cc(-c2cnn(C)c2)ccc1Oc1cccc(CC(=O)O)c1 [Compound 1-21, {3-[2-((4S,5R)-4-Methyl-2-oxo-5-phenyl-oxazolidin-3-ylmethyl)-4-(1-methyl-1H-pyrazol-4-yl)-phenoxy]-phenyl}-acetic acid]
< 300 nM | < 300 nM |  | C[C@H]1[C@@H](c2ccccc2)OC(=O)N1Cc1cc(-c2nccs2)ccc1Oc1cccc(CC(=O)O)c1 [Compound 1-74, {3-[2-((4S,5R)-4-Methyl-2-oxo-5-phenyl-oxazolidin-3-ylmethyl)-4-thiazol-2-yl-phenoxy]-phenyl}-acetic acid]
< 300 nM | < 300 nM |  | C[C@H]1[C@@H](c2ccccc2)OC(=O)N1Cc1cc(-c2ccccn2)ccc1Oc1cccc(CC(=O)O)c1 [Compound 1-19, {3-[2-((4S,5R)-4-Methyl-2-oxo-5-phenyl-oxazolidin-3-ylmethyl)-4-pyridin-2-yl-phenoxy]-phenyl}-acetic acid]
